Results from PMC9000336, “Development of Bicyclo[3.1.0]hexane-Based A3 Receptor Ligands: Closing the Gaps in the Structure–Affinity Relationships” (Molecules, 2022).
Like-named read-outs stand apart in the source and are kept apart here.

What was measured:
[1] = biological target: T1, hA2B receptor (Homo sapiens, UniProt P29275); experiment: Radioligand displacement assay, human adenosine A2B receptor ([3H]PSB-603, CHO-spap-hA2BR membranes); format: binding; conditions: for A2B displacement at 1 µM: footnote a: test compound 1 µM
T1 construct: expressed in transfected cells; host or cells: CHO-spap cells (CHO-spap-hA2BR), from S. J. Dowell (GlaxoSmithKline); membrane preparation
T1 sequence (P29275 1-332): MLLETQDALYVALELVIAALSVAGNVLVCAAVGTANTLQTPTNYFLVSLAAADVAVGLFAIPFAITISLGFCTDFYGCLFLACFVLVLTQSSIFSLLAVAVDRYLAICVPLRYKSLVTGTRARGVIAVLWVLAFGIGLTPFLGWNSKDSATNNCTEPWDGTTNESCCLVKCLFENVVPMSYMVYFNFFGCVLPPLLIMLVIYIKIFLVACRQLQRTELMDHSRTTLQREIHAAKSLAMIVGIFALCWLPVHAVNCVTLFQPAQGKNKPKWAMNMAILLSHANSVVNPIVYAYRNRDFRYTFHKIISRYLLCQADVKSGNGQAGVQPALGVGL
Experimental: (§1) Human embryonic kidney 293 cells stably expressing the human adenosine A2A receptor (HEK293hA2AR) were kindly provided by Dr. J. Wang (Biogen/IDEC, Cambridge, MA, USA), CHO-spap cells stably expressing the wild-type (WT) hA2B receptor (CHO-spap-hA2BR) were kindly provided by S. J. Dowell (GlaxoSmithKline, Brentfort, UK).
Chinese hamster ovary cells stably expressing the […] and a reporter gene, the secreted placental alkaline phosphatase, (CHO-spap-hA2BR) were grown in DMEM and Ham’s F12 medium (1:1) supplemented with 10% (v/v) newborn calf serum, 100 µg/mL streptomycin, 100 IU/mL penicillin, 1 mg/mL G418, and 0.4 mg/mL hygromycin at 37 °C and 5% CO2.
(§2) All cells were grown to 80–90% confluency and detached from plates by scraping them into 5 mL phosphate-buffered saline. Detached cells were collected and centrifuged at 200 g for 5 min. Pellets derived from 100 15 cm Ø plates were pooled and resuspended in 70 mL of ice-cold 50 mM tris(hydroxymethyl)aminomethane (Tris)-HCl buffer, pH 7.4. A Heidolph Diax 900 homogenizer was used to homogenize the cell suspension. Membranes and the cytosolic fraction were separated by centrifugation at 100,000 g in a Beckman Optima LE-80 K ultracentrifuge (Beckman Coulter, Fullerton, CA, USA) at 4 °C for 20 min. The pellet was resuspended in 35 mL of the Tris-HCl buffer, and the homogenization and centrifugation steps were repeated. Tris-HCl buffer (25 mL) was used to resuspend the pellet, and adenosine deaminase (ADA) was added (0.8 U/mL) to break down endogenous adenosine. Membranes were stored in 250 µL and 500 µL aliquots at −80 °C. Total protein concentrations were measured using the bicinchoninic acid (BCA) method.
A2B Receptor: Membrane aliquots containing 30 µg (CHO-spap-hA2BR) total protein were incubated in a total volume of 100 µL assay buffer (0.1% CHAPS in 50 mM TrisHCl, pH 7.4) at 25 °C for 2 h. […] Nonspecific binding was determined in the presence of 10 µM ZM241385. Incubations were terminated by rapid vacuum filtration to separate the bound and free radioligand through prewetted 96-well GF/B filter plates using a PerkinElmer Filtermate-harvester (Perkin Elmer, Groningen, the Netherlands). Filters were subsequently washed 12 times with ice-cold 0.1% BSA in 50 mM Tris-HCl, pH 7.4.
(§3) The plates of all four adenosine receptor assays were dried at 55 °C after which MicroscintTM-20-cocktail was added (Perkin Elmer, Groningen, The Netherlands).
(§4) All experimental data were analyzed using the non-linear regression curve fitting program GraphPad Prism 7.0 (GraphPad Software Inc., San Diego, CA, USA). IC50 values obtained from competition displacement binding data were converted into Ki values using the Cheng–Prusoff equation.

[2] = biological target: T2, human adenosine A2A receptor (Homo sapiens, UniProt P29274); experiment: Radioligand displacement assay, human adenosine A2A receptor ([3H]ZM241385, HEK293hA2AR membranes); format: binding; conditions: for A2A displacement at 10 µM: test compound 10 µM; for A2A displacement at 10 µM / Ki: n = 3
T2 construct: expressed in transfected cells; host or cells: HEK293 cells (HEK293hA2AR), from Dr. J. Wang (Biogen/IDEC); membrane preparation
Experimental: as §1, §2
Nonspecific binding was determined in the presence of 100 µM adenosine-5-N-ethyluronamide (NECA). Incubations were terminated by rapid vacuum filtration to separate the bound and free radioligand through prewetted 96-well GF/B filter plates using a PerkinElmer Filtermate-harvester (Perkin Elmer, Groningen, The Netherlands). Filters were subsequently washed 12 times with ice-cold 50 mM Tris-HCl, pH 7.4.
as §3, §4

[3] = n = 3, [3H]PSB-603, read-out: A2B Ki ± SEM
[4] = footnote a: tested at 1 µM, n = 3, read-out: A2B Ki (bound, footnote a)
[5] = footnote a: tested at 1 µM, read-out: A2A Ki (bound, footnote a)
[6] = [3H]ZM241385, read-out: A2A Ki ± SEM

T2 sequence (P29274 whole entry): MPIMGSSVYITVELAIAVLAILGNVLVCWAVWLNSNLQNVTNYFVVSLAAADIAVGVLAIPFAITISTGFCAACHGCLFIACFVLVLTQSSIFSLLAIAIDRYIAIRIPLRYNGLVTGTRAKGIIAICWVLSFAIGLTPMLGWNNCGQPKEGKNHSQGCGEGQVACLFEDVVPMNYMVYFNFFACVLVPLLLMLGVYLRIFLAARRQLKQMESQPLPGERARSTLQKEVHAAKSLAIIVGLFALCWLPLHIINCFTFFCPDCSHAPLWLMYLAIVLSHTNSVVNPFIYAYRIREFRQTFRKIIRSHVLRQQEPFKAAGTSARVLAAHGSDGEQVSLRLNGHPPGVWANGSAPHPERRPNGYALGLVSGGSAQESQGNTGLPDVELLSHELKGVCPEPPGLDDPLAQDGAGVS

Row | SMILES | Ki [1, 3] | A2A displacement at 10 µM [2] | Ki [2, 5] | other results
1 | COc1ccc(CNc2cc(Cl)nc3c2ncn3[C@H]2[C@H](O)[C@H](O)[C@]3(CO)C[C@H]23)cc1 [Compound 15, (1R,2R,3S,4R,5S)-4-{5-Chloro-7-[(4-methoxy)benzylamino]-3H-imidazo[4,5-b]pyridin-3-yl}-1-(hydroxymethyl)bicyclo[3.1.0]hexane-2,3-diol] | > 10 µM | 2% | – | –
2 | CCN(CC)CC.CSc1nc(N)c2ncn([C@H]3[C@H](O)[C@H](O)[C@]4(CNc5c(O)c(=O)c5=O)C[C@H]34)c2n1 [Compound 47, Triethylammonium 2-{[(1R,2R,3S,4R,5S)-4-(6-Amino-2-methylthio-9H-purin-9-yl)-2,3-dihydroxybicyclo[3.1.0]hex-1-yl]methyl}amino-3,4-dioxocyclobut-1-en-1-olate] | – | – | > 1 µM | Ki [1, 4]: > 1 µM
3 | Nc1ncnc2c1ncn2[C@H]1[C@H](O)[C@H](O)[C@]2(CO)C[C@H]12 [Compound 36, (N)-methanocarba adenosine] | > 10 µM | – | – | affinity at the A2B subtype [1]: no affinity; Ki [2, 6]: 1.81 ± 0.11 µM; fold lower affinity towards A2A receptor than A3 ([2]; relative to A3 Ki): 2 fold
4 | CSc1nc(N(Cc2ccccc2)Cc2ccccc2)c2ncn([C@H]3[C@H](O)[C@H](O)[C@]4(CCl)C[C@H]34)c2n1 [Compound 31, (1S,2R,3S,4R,5S)-4-[6-(Dibenzylamino)-2-methylthio-9H-purin-9-yl]-1-(chloromethyl)bicyclo[3.1.0]hexane-2,3-diol] | > 10 µM | – | – | Ki [2, 6]: > 10 µM
5 | CSc1nc(N)c2ncn([C@H]3[C@H](O)[C@H](O)[C@]4(Cn5cc(CCC(=O)O)nn5)C[C@H]34)c2n1 [Compound 46] | – | – | > 1 µM | A2B displacement at 1 µM ([1]; n = 3): 1% ^a
6 | CSc1nc(N(Cc2ccccc2)Cc2ccccc2)c2ncn([C@H]3[C@H](O)[C@H](O)[C@]4(CO)C[C@H]34)c2n1 [Compound 30, (1R,2R,3S,4R,5S)-4-[6-(Dibenzylamino)-2-methylthio-9H-purin-9-yl]-1-(hydroxymethyl)bicyclo[3.1.0]hexane-2,3-diol] | > 10 µM | 13% | – | –
7 | OC[C@@]12C[C@@H]1[C@@H](n1cnc3c(NCc4ccccc4)cc(Cl)nc31)[C@H](O)[C@@H]2O [Compound 13, (1R,2R,3S,4R,5S)-4-[7-(Benzylamino)-5-chloro-3H-imidazo[4,5-b]pyridin-3-yl]-1-(hydroxymethyl)bicyclo[3.1.0]hexane-2,3-diol] | > 10 µM | 13% | – | –
8 | Nc1cc(Cl)nc2c1ncn2[C@H]1[C@H](O)[C@H](O)[C@]2(CO)C[C@H]12 [Compound 16, (1R,2R,3S,4R,5S)-4-(7-Amino-5-chloro-3H-imidazo[4,5-b]pyridin-3-yl)-1-(hydroxymethyl)bicyclo[3.1.0]hexane-2,3-diol] | > 10 µM | 42% | – | –
9 | CSc1cc(NCc2ccccc2)c2ncn([C@H]3[C@H](O)[C@H](O)[C@]4(CO)C[C@H]34)c2n1 [Compound 14, (1R,2R,3S,4R,5S)-4-[7-(Benzylamino)-5-methylthio-3H-imidazo[4,5-b]pyridin-3-yl]-1-(hydroxymethyl)bicyclo[3.1.0]hexane-2,3-diol] | > 10 µM | 4% | – | –
10 | OC[C@@]12C[C@@H]1[C@@H](n1cnc3c(N(Cc4ccccc4)Cc4ccccc4)ncnc31)[C@H](O)[C@@H]2O [Compound 26, (1R,2R,3S,4R,5S)-4-[6-(Dibenzylamino)-9H-purin-9-yl]-1-(hydroxymethyl)bicyclo[3.1.0]hexane-2,3-diol] | – | 9% | – | A2B displacement at 10 µM ([1]; test compound 10 µM, n = 3): 12%
11 | OC[C@@]12C[C@@H]1[C@@H](n1cnc3c(N(Cc4ccccc4)Cc4ccccc4)nc(Cl)nc31)[C@H](O)[C@@H]2O [Compound 27, (1R,2R,3S,4R,5S)-4-[6-(Dibenzylamino)-2-chloro-9H-purin-9-yl]-1-(hydroxymethyl)bicyclo[3.1.0]hexane-2,3-diol] | > 10 µM | – | – | Ki [2, 6]: > 10 µM

Second part, led by results:

Row | Ki [1, 3] | A2A displacement at 10 µM [2] | Ki [2, 5] | SMILES | other results
12 | > 10 µM | 3% | – | COC(=O)c1cn(C[C@@]23C[C@@H]2[C@@H](n2cnc4c(N)nc(SC)nc42)[C@H](O)[C@@H]3O)nn1 [Compound 40, Methyl 1-{[(1R,2R,3S,4R,5S)-4-(6-amino-2-methylthio-9H-purin-9-yl)-2,3-dihydroxybicyclo[3.1.0]hex-1-yl]methyl}-1H-1,2,3-triazole-4-carboxylate] | –
13 | – | – | > 1 µM | CSc1nc(N)c2ncn([C@H]3[C@H](O)[C@H](O)[C@]4(Cn5cc(C(=O)O)nn5)C[C@H]34)c2n1 [Compound 44, 1-{[(1R,2R,3S,4R,5S)-4-(6-Amino-2-methylthio-9H-purin-9-yl)-2,3-dihydroxybicyclo[3.1.0]hex-1-yl]methyl}-1H-1,2,3-triazole-4-carboxylic acid] | A2B displacement at 1 µM ([1]; n = 3): 2% ^a
14 | > 10 µM | 11% | – | CSc1nc(N)c2ncn([C@H]3[C@H](O)[C@H](O)[C@]4(Cn5cc(CO)nn5)C[C@H]34)c2n1 [Compound 39, (1R,2R,3S,4R,5S)-4-(6-Amino-2-methylthio-9H-purin-9-yl)-1-{[4-(hydroxymethyl)-1H-1,2,3-triazol-1-yl]methyl}bicyclo[3.1.0]hexane-2,3-diol] | –
15 | > 10 µM | 29% | – | COC(=O)CCc1cn(C[C@@]23C[C@@H]2[C@@H](n2cnc4c(N)nc(SC)nc42)[C@H](O)[C@@H]3O)nn1 [Compound 42, Methyl 3-(1-{[(1R,2R,3S,4R,5S)-4-(6-amino-2-methylthio-9H-purin-9-yl)-2,3-dihydroxybicyclo[3.1.0]hex-1-yl]methyl}-1H-1,2,3-triazol-4-yl)propanoate] | –
16 | > 10 µM | 3% | – | CSc1nc(N)c2ncn([C@H]3[C@H](O)[C@H](O)[C@]4(Cn5cc(CN)nn5)C[C@H]34)c2n1 [Compound 43, (1R,2R,3S,4R,5S)-4-(6-Amino-2-methylthio-9H-purin-9-yl)-1-{[4-(aminomethyl)-1H-1,2,3-triazol-1-yl]methyl}bicyclo[3.1.0]hexane-2,3-diol] | –
17 | – | – | > 1 µM | CSc1nc(N)c2ncn([C@H]3[C@H](O)[C@H](O)[C@]4(Cn5cc(CC(=O)O)nn5)C[C@H]34)c2n1 [Compound 45, 2-(1-{[(1R,2R,3S,4R,5S)-4-(6-Amino-2-methylthio-9H-purin-9-yl)-2,3-dihydroxybicyclo[3.1.0]hex-1-yl]methyl}-1H-1,2,3-triazol-4-yl)acetic acid] | A2B displacement at 1 µM ([1]; n = 3): 5% ^a
18 | – | – | > 1 µM | CCN(CC)CC.CSc1nc(N)c2ncn([C@H]3[C@H](O)[C@H](O)[C@]4(CNS(=O)(=O)CC(=O)O)C[C@H]34)c2n1 [Compound 48, Triethylammonium 2-(N-{[(1R,2R,3S,4R,5S)-4-(6-amino-2-methylthio-9H-purin-9-yl)-2,3-dihydroxybicyclo[3.1.0]hex-1-yl]methyl}sulfamoyl)acetate] | Ki [1, 4]: > 1 µM
19 | – | – | > 1 µM | COC(=O)Cc1cn(C[C@@]23C[C@@H]2[C@@H](n2cnc4c(N)nc(SC)nc42)[C@H](O)[C@@H]3O)nn1 [Compound 41, Methyl 2-(1-{[(1R,2R,3S,4R,5S)-4-(6-amino-2-methylthio-9H-purin-9-yl)-2,3-dihydroxybicyclo[3.1.0]hex-1-yl]methyl}-1H-1,2,3-triazol-4-yl)acetate] | Ki [1, 4]: > 1 µM
